Measurements from patent US20120134978A1, “Cross-Linking of Superoxide Dismutase Monomers” (Brandeis University, priority 2009, published 2012).
Entries after “also recorded” stand apart in the source; their conditions may differ.

Legend:
wtSOD1 [1] = target: T1, wtSOD1 (Homo sapiens, UniProt P00441); experiment: Cross-linking and western blots (SDS-PAGE) of SOD1; assay type: biochemical; conditions: for SOD1 dimer formation by cross-linking (western blot): 1:1 or 1:3 molar ratio SOD1 to cross-linker, 1 hour, room temperature
T1 construct: purchased Sigma-Aldrich (St. Louis, Mo.)

G85R SOD1 [2] = target: T2, G85R SOD1 (Homo sapiens, UniProt P00441, G86R); experiment: Peptide sequencing using LC-FTMS (bottom-up analysis, site of cross-linking); assay type: binding; conditions: 1:1 molar ratio, Glu-C digest
T2 construct: made in house; host or cells: S. cerevisiae EGy118ΔSOD1, vector YEp-351

G93A SOD1 [3] = target: T3, G93A SOD1 (Homo sapiens, UniProt P00441, G94A); experiment: LC-FTMS of cross-linked SOD1 (stoichiometry of cross-linker binding); conditions: 1:1 molar ratio
T3 construct: made in house; host or cells: S. cerevisiae EGy118ΔSOD1, vector YEp-351
Procedure: G93A was cross-linked using DMTE or BMOE as previously described at a 1:1 molar ratio (5 μM:5 μM). After one hour, 3% acetonitrile and 1% formic acid was added to the sample and spun at 14,000 RPM for 10 minutes to pellet any precipitated protein. The cross-linked sample was placed in an autosampler and 1 μL of cross-linked sample was aspirated into either a Proxeon 1D HPLC or Eksigent 2D HPLC with the following gradient: 3-50% B for 30 minutes, 50-95% B for 7 minutes, 95% B for 5 minutes, 95-3% B for 1 minute, and 3% B for 15 minutes. Buffer A is HPLC water with 0.1% formic acid and buffer B is 100% acetonitrile, 0.1% formic acid. After liquid chromatography, the sample was ionized using nanospray ionization and analyzed using a […] Bruker Daltonics FTMS. The FTMS was controlled using Apex control software and source parameters were controlled using the Apollo II software. Spectra (monomeric and dimeric G93A) were collected using a skimmer 1 voltage of 35-40V, whereas funnel skimmer dissociation was used to fragment the cross-linked G93A by increasing skimmer one voltage 140 volts. LC-FTMS data of cross-linked and non-cross-linked G93A were analyzed using Data Analysis software (Bruker Daltonics). These experiments were repeated in triplicate. […]

G93A SOD1 [4] = target: T3, G93A SOD1; experiment: SOD1 activity assay (NBT gel based); assay type: biochemical; conditions: ~42 μM SOD1, 80 μM copper and zinc and/or 42 μM cross-linker
Procedure: (§1) The DTME cross-linked samples were divided in half, where one half was incubated with 10 mM TCEP and one was not, then analyzed on a 12.5% polyacrylamide gel. The gel was stained using a solution containing 50 mM potassium phosphate, pH 7.8, 1 tablet NBT (10 mg/tablet), and 0.1 mg/mL riboflavin for 45 minutes in the dark. After the 45 minute incubation 1 μL/mL TEMED was added and the gel was exposed to light for 2 minutes. Superoxide radicals create insoluble blue formazon from NBT. SOD1 acitivity is seen as a colorless band since SOD1 scavenges the superoxide, thus inhibiting the blue color formation. Repeated in triplicate.

wtSOD1 [5] = target: T1, wtSOD1; experiment: SOD1 activity assay (NBT gel based); assay type: biochemical; conditions: ~42 μM SOD1, 80 μM copper and zinc and/or 42 μM cross-linker
Procedure: as §1

G85R SOD1 [6] = target: T2, G85R SOD1; experiment: SOD1 activity assay (NBT gel based); assay type: biochemical; conditions: ~42 μM G85R; for SOD1 activity on addition of the substance: excess copper, zinc or cross-linker
Procedure: as §1

wtSOD1 [7] = target: T1, wtSOD1; experiment: MALDI-TOF MS of cross-linked SOD1; assay type: biochemical; conditions: 1:1 molar ratio
human = conditions: LD50 values in human; cited from earlier work
G85R SOD1 [8] = target: T2, G85R SOD1; experiment: Thermofluorescence stability assay (SYPRO Orange); assay type: binding; conditions: 10 μM G85R, 20 μM copper, 20 μM zinc
G93A SOD1 [9] = target: T3, G93A SOD1; experiment: Thermofluorescence stability assay (SYPRO Orange); assay type: binding; conditions: 10 μM G93A, 20 μM copper, 20 μM zinc

T3 sequence (P00441 2-154 G94A limits assumed): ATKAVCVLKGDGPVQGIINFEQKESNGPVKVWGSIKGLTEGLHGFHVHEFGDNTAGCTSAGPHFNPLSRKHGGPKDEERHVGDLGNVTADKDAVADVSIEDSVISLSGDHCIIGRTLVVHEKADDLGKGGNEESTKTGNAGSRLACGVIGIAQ
T1 sequence (P00441 2-154 limits assumed): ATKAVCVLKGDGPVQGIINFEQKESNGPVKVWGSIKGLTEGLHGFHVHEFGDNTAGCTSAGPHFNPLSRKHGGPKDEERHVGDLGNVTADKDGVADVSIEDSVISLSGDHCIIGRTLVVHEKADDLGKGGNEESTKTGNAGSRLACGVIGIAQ
T2 sequence (P00441 2-154 G86R limits assumed): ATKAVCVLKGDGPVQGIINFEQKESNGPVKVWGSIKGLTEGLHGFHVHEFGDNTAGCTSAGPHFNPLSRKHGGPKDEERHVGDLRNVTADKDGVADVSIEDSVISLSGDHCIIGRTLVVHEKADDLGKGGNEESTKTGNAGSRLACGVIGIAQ

O=C1C=CC(=O)N1CCOCCOCCN1C(=O)C=CC1=O [BM(PEG)2, 1,8-bis-Maleimidodiethyleneglycol]
SOD1 dimer formation by cross-linking (western blot) (wtSOD1 [1]): resulted in the stabilization of SOD1 dimer

O=C1C=CC(=O)N1CCCCN1C(=O)C=CC1=O [BMB, 1,4bismaleimidobutane]
SOD1 dimer formation by cross-linking (western blot) (wtSOD1 [1]): resulted in the stabilization of SOD1 dimer

O=C1C=CC(=O)N1CC(O)C(O)CN1C(=O)C=CC1=O (stereo not shown) [BMDB, 1,4-bismaleimidyl-2,3-dihydroxybutane]
SOD1 dimer formation by cross-linking (western blot) (wtSOD1 [1]): resulted in the stabilization of SOD1 dimer

O=C1C=CC(=O)N1CCN1C(=O)C=CC1=O [BMOE, bis(maleimido)ethane]
cross-reactivity with other SOD1 cysteine residues Cys6, Cys57 and Cys146 (G85R SOD1 [2]): relatively low | site of cross-linking (G85R SOD1 [2]): mainly through Cys111 | stoichiometry of cross-linker binding (G93A SOD1 [3]): consistent with the molecular weight of G93A plus one cross-linker | SOD1 activity on addition of the substance (G93A SOD1 [4]): unaffected | SOD1 activity on addition of the substance (wtSOD1 [5]): unchanged | SOD1 activity on addition of the substance (G85R SOD1 [6]): increases

O=C1C=CC(=O)N1CCSSCCN1C(=O)C=CC1=O [DTME, Dithio-bismaleimidoethane]
stoichiometry of cross-linker binding (G93A SOD1 [3]): one equivalent of cross-linker produced one equivalent of dimer; also recorded: consistent with the molecular weight of G93A plus one cross-linker | dimer observed in MALDI-TOF spectra of cross-linked SOD1 (wtSOD1 [7]): The majority of the species observed is dimeric wtSOD1 | state of cross-linked SOD1 dimer in presence of reducing agent (DTT) (wtSOD1 [1]; 1:1 molar ratio, SDS PAGE with reducing agent): only monomer was observed; also recorded: returning the dimer to its monomeric form; also recorded: became a monomer in the presence of reducing agent | SOD1 dimer formation by cross-linking (western blot) (wtSOD1 [1]): resulted in the stabilization of SOD1 dimer; also recorded: resulted in dimeric SOD1 | SOD1 activity in the presence of copper, zinc and cross-linker (G85R SOD1 [6]; 80 μM copper and zinc and 42 μM cross-linker): even larger increase in activity; also recorded: largest increase in activity | SOD1 activity on addition of the substance (G85R SOD1 [6]): increases

C=CS(=O)(=O)CCCCCCS(=O)(=O)C=C [HBVS, 1,6-Hexanol-bis-vinylsulfone]
SOD1 dimer formation by cross-linking (western blot) (wtSOD1 [1]): did not result in formation of dimeric SOD1; also recorded: did not appear to cross-link SOD1

O=C(CI)NCCNC(=O)CI [N,N′-ethylenebis-(iodoacetamide)]
LD50 (human): 9 mg/kg

O=C1C=CC(=O)N1CCN(CCN1C(=O)C=CC1=O)CCN1C(=O)C=CC1=O [TMEA, Tris[2-maleimidoethyl]-amione]
relative cross-linking efficiency (western blot) (wtSOD1 [1]; 1:1 or 1:3 cross-linker to protein): most efficient cross-linker | SOD1 dimer formation by cross-linking (western blot) (wtSOD1 [1]): resulted in the stabilization of SOD1 dimer

NNc1ccccc1 [phenylhydrazine]
LD50 (human): 80 mg/kg

copper and zinc
stabilization by excess copper and zinc alone (G85R SOD1 [8]): ~20 °C | effect of excess copper and zinc on stability (G93A SOD1 [9]): no affect; also recorded: little effect | SOD1 activity on addition of the substance (G93A SOD1 [4]): unaffected | SOD1 activity on addition of the substance (wtSOD1 [5]; zinc): unaffected; also recorded: unchanged | SOD1 activity on addition of the substance (G85R SOD1 [6]): increases
